Test results published in PMC11591946, “Exploring the Potential of Biomimetic Peptides in Targeting Fibrillar and Filamentous Alpha-Synuclein—An In Silico and Experimental Approach to Parkinson’s Disease” (Biomimetics, 2024).
Where no end group is shown, it is not given here.

Key:
ASyn preformed fibrils = molecular target: T1, ASyn preformed fibrils (Homo sapiens, UniProt P37840); assay: Thioflavin-T (ThT) assay; type: biochemical; details: 20 μM ASyn preformed fibrils + 20 μM peptide in PBS, 70 μM ThT; for reduction in ThT fluorescence intensity: excitation 440 nm, over the course of 46 h
T1 construct: purchased StressMarq
Protocol: Thioflavin T assay was conducted to assess the effect of five peptides (PYYYWKELAQM; PYYYWKDPNGS; EQALMPEGMGLEDPNGS; ELAQMPYYYWKDPNGS; ELAQMPWIWYWKDPNGS) on ASyn preformed fibrils (StressMarq). […] [75]. The samples were prepared by incubating 20 μM of ASyn diluted in PBS buffer with 20 μM of each peptide. To each sample, 70 μM ThT dye diluted in deionized water was added. The prepared solutions were then transferred into quartz cuvettes, and the emission spectra at different time intervals were recorded. Samples were excited at 440 nm, and emission spectra were recorded between 460 nm to 550 nm at a slit of 3 nm.

[1] = DPPH radical scavenging antioxidant assay; type: biochemical; details: colorimetric DPPH kit; at the highest concentrations (2, 10, 20, 40 µM tested)
Protocol: To investigate the antioxidant activity of the five peptides (PYYYWKELAQM; PYYYWKDPNGS; EQALMPEGMGLEDPNGS; ELAQMPYYYWKDPNGS; ELAQMPWIWYWKDPNGS), we conducted a colorimetric DPPH (2,2-diphenyl-1-picrylhydrazyl) radical scavenging assay using an antioxidant assay kit (AbCam, USA). In general, the protocol from the assay kit was followed to determine the antioxidant activity. Four different concentrations of each of the peptides were utilized (2 µM, 10 µM, 20 µM, and 40 µM). A standard curve was generated using Trolox, and then the activities of each of the peptides were compared by calculating the inhibition ratio.

Sequence | reduction in ThT fluorescence intensity (ASyn preformed fibrils) [%] | reduction in ThT fluorescence intensity at 48 h (ASyn preformed fibrils; at 48 h) [%] | DPPH radical scavenging activity in comparison to Trolox (standard) [1] [%]
ELAQMGPEGPMGLEDPNGS [ELAQMGPEGPMGLEDPNGS] | 32 | – | –
EQALMPWIWYWKDPNGS [EQALMPWIWYWKDPNGS] | – | 42 | 19
PYYYWKDPNGS [PYYYWKDPNGS] | 46.2 | – | –
ELAQMPYYYWKDPNGS [ELAQMPYYYWKDPNGS] | 27 | – | –
